# Data as given in US10787465B2, “Lanthanide toolbox for organelle specific molecular imaging with multi-color” (New Life Medicine Technology Company Limited, priority 2017, dated 2020).
# Legend:
# [1] = system: HeLa cells; assay: Two-photon confocal in vitro imaging (subcellular localization); type: cell-based, Human; conditions: 10 μM; for localization of red emission: two-photon λex=700 nm
# Description: Cells were seeded on coverslip in 35-mm culture dishes overnight. And then incubated with HGEu001 or HGEu002 (10 μM) for 6 hours, and the cells were washed by PBS 3 times before imaging. […] Then the unabsorbed complexes were washed out with PBS buffer and the cells were subject to microscopic imaging. The in vitro imaging of HGEu001 and HGEu002 were undertaken on a linear fluorescence microscopy under 375 nm UV light excitation or a confocal laser scanning microscope, Leica TCS SP8, equipped with a Ti:sapphire laser (Libra II, coherent). The excitation beam produced by 690 nm to 1080 nm (fs laser) was focused on the adherent cells through a 63× oil immersion objective.
# 3D images obtained by the Z-stacks form the two-photon confocal microscopy and the 3D reconstruction was done with built-in programs of Leica TCS SP8 confocal microscope.
# [2] = system: GFP-ARL13B; assay: Co-localization imaging with primary cilia marker GFP-ARL13B; type: cell-based, Human; conditions: HeLa cells, 10 μM
# From the text: (§1) (a) 3D Co-Localization Imaging of HGEu001 and HGEu002 with Primary Cilia Markers ARTL13B and IFT88.
# (§2) Full length ARTL13B (ADP-ribosylation factor-like protein 13B) was PCR amplified from cDNA library and inserted into multiple cloning sites (MCS) of pEGFP-C3 (CLONETECH, #6082-1) using restriction digestion sites of XhoI/EcorI for GFP-ARTL13B expression. […] Plasmid mEmerald-IFT88-N-18 (intraflagellar transport protein 88 homolog) expressing GFP-IFT88 was a gift from Michael Davidson (Addgene plasmid #54125). Plasmids were amplified in E. coli (DH5α) and purified using a StarPrep Plasmid Miniprep Kit (Genstar). Both GFP-ARL13B and GFP-ITF88 for primary cilium tracking were expressed in HeLa cells through lipofectamine2000 (Cat. No.11668-019, Invitrogen) mediated transfection. Briefly, a 3.5 cm dish of HeLa cells (with 70-80% confluent) was transfected with 4 μg DNA plus 4 μL lipotectamine2000 mixture according to the manufacturer instructions. After incubation for 8 hours, 10 μM of HGEu001 or HGEu002 were added and incubated for 6 hours.
# [3] = system: HeLa cells; assay: MTT cell cytotoxicity assay, HeLa; type: cell-based, Human; conditions: Incubation time = 24 hours
# Description: (§3) Human cervical cancer HeLa cells were grown in Dulbecco's Modified Eagle Medium (DMEM). Human lung normal diploid fibroblasts MRC-5 and neuroblastoma cells SK-N-SH were provided by Cell resource center of Shanghai Institute of Biological Sciences, Chinese Academy of Sciences; and cultured in MEM (GIBCO 41500034); Human derived liver cells QSG-7701 cells were grown in RPMI-1640 (GIBCO 31800022); all cells were supplemented with 10% (v/v) fetal bovine serum, 1% penicillin and streptomycin at 37° C. and 5% CO2.
# (§4) HeLa, SKA-SH, QSG-7701 or MRC-5 cells treated with testing complexes for 24 hours were further incubated with MTT, 3-(4,5-dimethylthiazol-2-yl)-2 and 5-diphenyltetrazolium bromide (0.5 mg; ml) for 4 hours, to produce formazan during cell metabolism. Then, formazan was thoroughly dissolved by dimethyl sulfoxide (DMSO), and the absorbance of solutions was measured in Bio-Rad iMark microplate reader (570 nm). Quadruplicates were performed. Data analysis and plotting were operated by the GraphPad Prism 5 software.
# [4] = system: QSG-7701 cells; assay: MTT cell cytotoxicity assay, QSG-7701; type: cell-based, Human; conditions: Incubation time = 24 hours
# Description: as §3, §4
# [5] = system: GFP-IFT88; assay: Co-localization imaging with primary cilia marker GFP-IFT88; type: cell-based, Human; conditions: HeLa cells, 10 μM, 6 hours, z stack, λex=700 nm
# From the text: as §1, §2
# [6] = system: SK-N-SH cells; assay: MTT cell cytotoxicity assay, SK-N-SH; type: cell-based, Human; conditions: Incubation time = 24 hours
# Description: as §3, §4
# [7] = Photophysical studies (absorption, emission, decay lifetime, quantum yield); type: physicochemical
# Description: UV-Visible absorption spectra in the spectral range 200 to 1100 nm were recorded by an HP Agilent UV-8453 Spectrophotometer. The emission spectra and the emission decay lifetimes of HGEu001 and HGEu002 were measured by Horiba Fluorolog-3 spectrophotometer and also measured by Edinburgh instrument ELS920 spectrophotometer for cross checking. (Two spectrophotometers are equipped with a 450 W continuous xenon lamp for steady state emission measurement, 60 W xenon flashlamp for emission life time measurement and an UV-Vis PMT detector—Hamamatsu—R928 cooled 216 at −20° C.)
# UV-Visible absorption spectra of HGEu001-Coumarin and HGEu001-Por were recorded by an HP Agilent UV-8453 Spectrophotometer. The emission spectra of HGEu001-Coumarin and HGEu001-Por were measured by Horiba Fluorolog-3 spectrophotometer, which was equipped with a 450 W continuous xenon lamp and a UV-Vis PMT detector—Hamamatsu—R928 cooled 216 at −20° C. for steady state emission measurement.
# [8] = system: MRC-5 cells; assay: MTT cell cytotoxicity assay, MRC-5; type: cell-based, Human; conditions: Incubation time = 24 hours
# Description: as §3, §4
# [9] = system: organelles (mitochondria, lysosome and Golgi apparatus); assay: Co-localization imaging with organelle probes; type: cell-based, Human; conditions: HeLa cells, 10 μM, 6 hours, MitoTracker Green FM
# Description: (b) Co-Localization Imaging of HGEu001 and HGEu002 with Organelles.
# Live cell labeling probes of organelles (mitochondria, lysosome and Golgi apparatus) MitoTracker® Green FM (M-7514), LysoTracker® Green DND-26 (L-7526) and GolgiTracker® Oregon Green (W6748, Wheat Germ Agglutinin) were respectively purchased from ThermoFisher Scientic Inc. and stocked in −20° C.
# Three dishes of HeLa cells (1×10^5) were first incubated with 10 μM HGEu001/HGEu002 for 6 hours. Then organelles probes (50 nM, each) were added in parallel to the cells and further incubated for 15 minutes. The cells were washed by PBS 3 times before imaging on the linear fluorescence microscopy. Under the excitation of UV light (375 nm) emission from the channel (610-630 nm) were collected for the emission signals from HGEu001/HGEu002. Under 488 nm blue light excitation, imaging channel in the range between 505 and 555 nm were collected from the emission signal of organelles dyes.
smiles,measurement,setting,value
CC(C)(C)NC(=O)CN1CCN(CC(=O)NC(C)(C)C)CCN(Cc2cc(C#Cc3ccc(NC(=O)c4ccc(C(F)(F)F)cc4)cc3)ccn2)CCN(CC(=O)NC(C)(C)C)CC1.O.[Cl-].[Cl-].[Cl-].[Eu+3] [HGEu002],localization of red emission,[1]; 3 hours incubation,localized in cytoplasm
same,localization of red emission,[1]; 6 hours incubation,localized in cytoplasm
same,"europium emission in the rod-like organelles, three dimensional confocal images","[1]; 6 hours, z stack, excitation at 700 nm",did not show any europium emission in the rod-like organelles
same,localization of red emission,[1]; 18 hours incubation,localized in cytoplasm
same,localization of red emission,[1]; 24 hours incubation,localized in cytoplasm
same,overlap of red emission with green emission of GFP-ARL13B (merged images),[2]; 6 hour incubation after GFP transfection,only slight yellow emission can be found in their merged images
same,"merged emission on co-staining with GFP-ARL13B, three dimensional imaging","[2]; 6 hours, z stack, λex=700 nm",did not show merged yellow in vitro emission
same,IC50,[3],417 µM
same,IC50,[4],410 µM
same,"merged emission on co-staining with GFP-IFT88, three dimensional imaging",[5],did not show merged yellow in vitro emission
same,IC50,[6],437 µM
same,"τ(D2O), europium emission decay lifetime","[7]; D2O, λem = 614 nm, 5D0→7F2, λex = 340 nm",1.78 ms
same,"τ(H2O), europium emission decay lifetime","[7]; H2O, λem = 614 nm, 5D0→7F2, λex = 340 nm",0.56 ms
same,ε (absorption coefficient),"[7]; in H2O, 298K",22200 M⁻¹ cm⁻¹
same,λmax (absorption),"[7]; in H2O, 298K",327 nm
same,"ΦL^Eu, overall europium emission quantum yield","[7]; in H2O, by integrated sphere",10.3%
same,"q, derived hydration number","[7]; q (±20%), from k(H2O) and k(D2O)",0.9
same,IC50,[8],402 µM
same,"merged emission with green mito-tracker, three dimensional imaging",[9],did not show merged yellow in vitro emission
